# Data from PubChem BioAssay AID296 (DTP/NCI, 2004).
# Several values for one entry are separate records, joined by “and”; a condition that tells them apart may be missing. Equal entries are not always repeated. Results filed as inconclusive are left out.
# Tested on: MX-1 breast xenograft, nude mice, tumor weight T/C
# Experiment: NCI In Vivo Anticancer Drug Screen. Data for tumor model Human Mammary Carcinoma MX-1 Xenograft (intrarenal inoculation) in NU/NU Swiss (nude) mice
# Conditions: endpoint: mean tumor weight change, higher = larger tumour
# Procedure, shortened: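 Read-out: treated (T) over vehicle control (C) ratio of survival or tumor size. Dosing in animals carrying the transplanted tumor.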
# [1] = dose: 200.0 mg/kg/injection, schedule: Q04DX003 (sc), vehicle: Klucel (hydroxypropylcellulose) (HPC)
# [2] = dose: 300.0 mg/kg/injection, schedule: Q04DX003 (sc), vehicle: Klucel (hydroxypropylcellulose) (HPC)
# [3] = dose: 400.0 mg/kg/injection, schedule: Q04DX003 (sc), vehicle: Klucel (hydroxypropylcellulose) (HPC)
# [4] = dose: 600.0 mg/kg/injection, schedule: Q04DX003 (sc), vehicle: Klucel (hydroxypropylcellulose) (HPC)
# [5] = dose: 1200.0 mg/kg/injection, schedule: Q04DX003 (sc), vehicle: Klucel (hydroxypropylcellulose) (HPC)
# [6] = dose: 100.0 mg/kg/injection, schedule: Q01DX010 (sc), vehicle: Klucel (hydroxypropylcellulose) (HPC)
# [7] = dose: 200.0 mg/kg/injection, schedule: Q01DX010 (sc), vehicle: Klucel (hydroxypropylcellulose) (HPC)
# [8] = dose: 400.0 mg/kg/injection, schedule: Q01DX010 (sc), vehicle: Klucel (hydroxypropylcellulose) (HPC)
# [9] = dose: 800.0 mg/kg/injection, schedule: Q01DX010 (sc), vehicle: Klucel (hydroxypropylcellulose) (HPC)
# [10] = dose: 4.0 mg/kg/injection, schedule: Q01DX010 (sc), vehicle: saline
# [11] = dose: 300.0 mg/kg/injection, schedule: Q04DX003 (sc), vehicle: water
# [12] = dose: 150.0 mg/kg/injection, schedule: Q04DX003 (sc), vehicle: saline
# [13] = dose: 300.0 mg/kg/injection, schedule: Q04DX003 (sc), vehicle: saline
# [14] = dose: 600.0 mg/kg/injection, schedule: Q04DX003 (sc), vehicle: saline
smiles,measurement,setting,value
Cc1ncc([N+](=O)[O-])n1CCSC(N)=O,T/C,"dose: 50.0 mg/kg/injection, schedule: Q01DX010 (sc), vehicle: saline with Tween-80",103 % of control
same,T/C,"dose: 100.0 mg/kg/injection, schedule: Q01DX010 (sc), vehicle: saline with Tween-80",15 % of control
same,T/C,"dose: 200.0 mg/kg/injection, schedule: Q01DX009 (sc), vehicle: saline with Tween-80",17 % of control
same,T/C,"dose: 400.0 mg/kg/injection, schedule: Q01DX009 (sc), vehicle: saline with Tween-80",42 % of control
same,T/C,"dose: 400.0 mg/kg/injection, schedule: Q01DX010 (sc), vehicle: saline with Tween-80",77 % of control and 83 % of control and 86 % of control
same,T/C,"dose: 800.0 mg/kg/injection, schedule: Q01DX009 (sc), vehicle: saline with Tween-80",5 % of control
O=C(C#Cc1ccccc1)c1ccccc1,T/C,"dose: 50.0 mg/kg/injection, schedule: Q04DX003 (sc), vehicle: Klucel (hydroxypropylcellulose) (HPC)",76 % of control
same,T/C,"dose: 100.0 mg/kg/injection, schedule: Q04DX003 (sc), vehicle: Klucel (hydroxypropylcellulose) (HPC)",113 % of control
same,T/C,[1],87 % of control
same,T/C,[2],87 % of control
same,T/C,[3],42 % of control
same,T/C,[4],110 % of control
same,T/C,[5],104 % of control
ClCCCCCCCCCCc1ccccc1,T/C,[6],89 % of control
same,T/C,[7],44 % of control
same,T/C,[8],116 % of control
same,T/C,[9],93 % of control
COc1cc([C@@H]2c3cc4c(cc3[C@@H](OC3OC5COC(C)OC5C(O)C3O)[C@H]3COC(=O)[C@H]23)OCO4)cc(OC)c1O (stereo not given in full),T/C,"dose: 2.0 mg/kg/injection, schedule: Q01DX010 (sc), vehicle: saline",72 % of control
same,T/C,[10],97 % of control
same,T/C,"dose: 8.0 mg/kg/injection, schedule: Q01DX010 (sc), vehicle: saline",51 % of control
same,T/C,"dose: 16.0 mg/kg/injection, schedule: Q01DX010 (sc), vehicle: saline",72 % of control
S=P(N1CC1)(N1CC1)N1CC1,T/C,[10],-94 % of control
CC1CN=C(c2ccc(NC(=O)c3ccc(C(=O)Nc4ccc(C5=NCC(C)N5)cc4)cc3)cc2)N1 (stereo not given),T/C,[6],96 % of control
same,T/C,[7],107 % of control
same,T/C,[8],110 % of control
same,T/C,[9],77 % of control
CSc1nc(=O)[nH]nc1SCc1ccccc1,T/C,[1],100 % of control
same,T/C,[3],87 % of control
same,T/C,"dose: 800.0 mg/kg/injection, schedule: Q04DX003 (sc), vehicle: Klucel (hydroxypropylcellulose) (HPC)",69 % of control
same,T/C,"dose: 1600.0 mg/kg/injection, schedule: Q04DX003 (sc), vehicle: Klucel (hydroxypropylcellulose) (HPC)",60 % of control
CC(C)(C)N1CC1CNC(=O)C(=O)NCC1CN1C(C)(C)C (stereo not given),T/C,"dose: 50.0 mg/kg/injection, schedule: Q04DX003 (sc), vehicle: saline with Tween-80",-41 % of control and -29 % of control
Cc1ccc(C(=O)[O][Hg][CH2]C2COC([CH2][Hg][O]C(=O)c3ccc(C)cc3)CO2)cc1 (stereo not given),T/C,[2],109 % of control
same,T/C,[4],106 % of control
same,T/C,[5],72 % of control
same,T/C,"dose: 2400.0 mg/kg/injection, schedule: Q04DX003 (sc), vehicle: Klucel (hydroxypropylcellulose) (HPC)",102 % of control
CC(=O)N(C)C,T/C,"dose: 168.75 mg/kg/injection, schedule: Q04DX003 (sc), vehicle: saline",81 % of control
same,T/C,"dose: 337.5 mg/kg/injection, schedule: Q04DX003 (sc), vehicle: saline",100 % of control
same,T/C,"dose: 675.0 mg/kg/injection, schedule: Q04DX003 (sc), vehicle: saline",85 % of control
same,T/C,"dose: 1350.0 mg/kg/injection, schedule: Q04DX003 (sc), vehicle: saline",61 % of control
CC(C)[NH-].CC(C)[NH-].[Cl][Pt+2][Cl],T/C,"dose: 300.0 mg/kg/injection, schedule: Q04DX003 (sc), vehicle: dextrose",35 % of control
O=[N+]([O-])O.O=[N+]([O-])O.[NH-]C1CCCCC1[NH-].[Pt+2] (stereo not given),T/C,"dose: 1.0 mg/kg/injection, schedule: Q01DX010 (sc), vehicle: dextrose",62 % of control
same,T/C,"dose: 2.0 mg/kg/injection, schedule: Q01DX010 (sc), vehicle: dextrose",27 % of control
O.O.[NH-]C1CCCCC1[NH-].[Pt+2] (stereo not given),T/C,"dose: 2.5 mg/kg/injection, schedule: Q01DX010 (sc), vehicle: dextrose",111 % of control
same,T/C,"dose: 5.0 mg/kg/injection, schedule: Q01DX010 (sc), vehicle: dextrose",76 % of control and 78 % of control
same,T/C,"dose: 10.0 mg/kg/injection, schedule: Q01DX010 (sc), vehicle: dextrose",55 % of control and 60 % of control
same,T/C,"dose: 20.0 mg/kg/injection, schedule: Q01DX010 (sc), vehicle: dextrose",26 % of control and 36 % of control
COc1cc(NCc2ccc3nc(N)nc(N)c3c2C)cc(OC)c1OC,T/C,"dose: 1.25 mg/kg/injection, schedule: Q01DX010 (sc), vehicle: sodium bicarbonate",70 % of control
same,T/C,"dose: 2.5 mg/kg/injection, schedule: Q01DX010 (sc), vehicle: sodium bicarbonate",46 % of control
same,T/C,"dose: 20.0 mg/kg/injection, schedule: Q01DX010 (sc), vehicle: sodium bicarbonate",97 % of control
same,T/C,"dose: 75.0 mg/kg/injection, schedule: Q04DX003 (sc), vehicle: water",115 % of control
same,T/C,"dose: 150.0 mg/kg/injection, schedule: Q04DX003 (sc), vehicle: water",108 % of control
same,T/C,[11],112 % of control
O=c1ncccn1[C@@H]1O[C@H](CO)[C@H](O)C1O (stereo not given in full),T/C,[12],114 % of control
same,T/C,[13],156 % of control
same,T/C,[14],160 % of control
same,T/C,"dose: 1200.0 mg/kg/injection, schedule: Q04DX003 (sc), vehicle: saline",108 % of control
Nc1ccccc1N,T/C,"dose: 25.0 mg/kg/injection, schedule: Q01DX010 (sc), vehicle: Klucel (hydroxypropylcellulose) (HPC)",103 % of control
same,T/C,[6],80 % of control and 211 % of control
same,T/C,[7],34 % of control and 47 % of control
Cc1noc(N)c1N,T/C,[11],102 % of control
same,T/C,"dose: 600.0 mg/kg/injection, schedule: Q04DX003 (sc), vehicle: water",97 % of control
same,T/C,"dose: 1200.0 mg/kg/injection, schedule: Q04DX003 (sc), vehicle: water",102 % of control
same,T/C,"dose: 2400.0 mg/kg/injection, schedule: Q04DX003 (sc), vehicle: water",92 % of control
COC1=C(C)C(=O)C2=C(C1=O)C1C3CC4=C(C(=O)C(OC)=C(C)C4=O)C(CNC(=O)C(C)=O)N3C(C#N)C(C2)N1C (stereo not given),T/C,"dose: 1.0 mg/kg/injection, schedule: Q04DX003 (sc), vehicle: Klucel (hydroxypropylcellulose) (HPC)",104 % of control
same,T/C,"dose: 4.0 mg/kg/injection, schedule: Q04DX003 (sc), vehicle: Klucel (hydroxypropylcellulose) (HPC)",69 % of control
CN1CCN(c2ccc([N+](=O)[O-])c3no[n+]([O-])c23)CC1,T/C,"dose: 20.0 mg/kg/injection, schedule: Q01DX010 (sc), vehicle: saline with Tween-80",45 % of control
same,T/C,"dose: 40.0 mg/kg/injection, schedule: Q01DX010 (sc), vehicle: saline with Tween-80",69 % of control
CN(C)c1ccc2c(N(C)C)cc(N(C)C)nc2c1,T/C,"dose: 18.75 mg/kg/injection, schedule: Q04DX003 (sc), vehicle: Klucel (hydroxypropylcellulose) (HPC)",78 % of control
same,T/C,"dose: 37.5 mg/kg/injection, schedule: Q04DX003 (sc), vehicle: Klucel (hydroxypropylcellulose) (HPC)",84 % of control
same,T/C,"dose: 75.0 mg/kg/injection, schedule: Q04DX003 (sc), vehicle: Klucel (hydroxypropylcellulose) (HPC)",82 % of control
c1ccc2c(c1)[As]=c1ccccc1=[As]2 (stereo not given),T/C,[12],116 % of control
same,T/C,[13],118 % of control
same,T/C,[14],99 % of control
O=c1[nH]cnc2c1ccn2C1OC(CO)C(O)C1O (stereo not given),T/C,"dose: 12.5 mg/kg/injection, schedule: Q04DX003 (sc), vehicle: saline",57 % of control
same,T/C,"dose: 25.0 mg/kg/injection, schedule: Q04DX003 (sc), vehicle: saline",71 % of control
N#C[Se-].c1ccc([Te+](c2ccccc2)c2ccccc2)cc1,T/C,"dose: 3.75 mg/kg/injection, schedule: Q04DX003 (sc), vehicle: Klucel (hydroxypropylcellulose) (HPC)",101 % of control
same,T/C,"dose: 7.5 mg/kg/injection, schedule: Q04DX003 (sc), vehicle: Klucel (hydroxypropylcellulose) (HPC)",118 % of control
same,T/C,"dose: 30.0 mg/kg/injection, schedule: Q04DX003 (sc), vehicle: Klucel (hydroxypropylcellulose) (HPC)",75 % of control
C[N+](C)(C)c1cc2c(nn1)Nc1ccccc1S2,T/C,"dose: 50.0 mg/kg/injection, schedule: Q01DX010 (sc), vehicle: Klucel (hydroxypropylcellulose) (HPC)",74 % of control
same,T/C,[6],240 % of control and 272 % of control
